Patent US8247183B2, “Compositions and methods for diagnosis and treatment of tumors” (The United States of America, as represented by the …, priority 2006, dated 2012)

Assays:
Human MMP-9 = biological target: T1, Human MMP-9 (Homo sapiens, UniProt P14780); test: OPN cleavage assay with MMP-9 and MMP inhibitors; assay type: biochemical; conditions: Western blot after 1-hour digestion at 37° C.; EDTA 10 mM, MMP-9 inhibitor I 2 μM, TIMP-1 0.1 μM
T1 construct: purchased Calbiochem, CA
Procedure: OPN cleavage assays were performed as follows. Human MMP-9 (Calbiochem, CA) was incubated at 37° C. for 3 hours with recombinant human OPN (R&D systems, MN) at an optimized ratio (5:1 substrate:enzyme) in a buffered solution (200 mM NaCl, 5 mM CaCl, 50 mM Tris-C1, pH 7.5). Digested OPN was analyzed by 16% tris-glycine SDS-PAGE followed by colloidal coomassie blue staining (SimplyBlue™, Invitrogen, CA). Separate cleavage reactions (2 μg OPN) were transferred to PDVF membranes for amino-end terminal microsequencing.
For western blot analysis, MMP-9-digested OPN samples and whole cell lysates (50 μg) were transferred to 0.22 um PVDF membranes and probed with a polyclonal antibody generated to a 14-residue peptide just downstream of the residue 169 thrombin cleavage site ([sequence]; amino acids 169-183 of SEQ ID NO: 2) (Abcam, MA). HEK-293 cell lysates were probed with an anti-FLAG antibody (Sigma, Mo.). Immuno-reactive proteins were detected by chemilluminescence (ECL, GE Healthcare Life Sciences, NJ).

SMMC-7721 SC2 cells = test: Matrigel invasion assay with short overlapping peptides of OPN-5kD; assay type: cell-based, human; conditions: 36 hours; for effect on OPN-5kD induced invasion, separate addition: in conjunction with OPN-5kD, 1:1 molar, 2 μM each; for cellular invasion relative to media alone treated cells: peptide alone, 2 μM, p<0.05
Text: A 44 residue peptide corresponding to the OPN-5kD fragment (SEQ ID NO: 4), was synthesized and purified >97% by HPLC (EZBiolabs, IN). A series of short peptides spanning the region of residues 167-210 of OPN (SEQ ID NO: 2) were generated as follows. Eight small overlapping peptides spanning the OPN-5kD peptide were similarly synthesized to >75% purity (p1=[…], amino acids 167-176 of SEQ ID NO: 2; p2=[…], amino acids 172-181 of SEQ ID NO: 2; p3=[…], amino acids 177-186 of SEQ ID NO: 2; p4=[…], amino acids 182-191 of SEQ ID NO: 2; p5=[…], amino acids 187-196 of SEQ ID NO: 2; p6=[…], amino acids 192-201 of SEQ ID NO: 2; p7=[…], amino acids 197-206 of SEQ ID NO: 2; and p8=[…] amino acids 202-210 of SEQ ID NO: 2) (EZBiolabs, IN). The lyophilized peptides were resuspended in PBS and applied with cells to the upper wells of Matrigel invasion chambers at equal molar concentrations (2 μM). Invading cells were measured after 36 hours following calcein incorporation as described in the examples above.

SMMC-7721-SC2 cells [1] = test: Cellular adhesion with exogenous intact or MMP-9 cleaved OPN; assay type: cell-based, human; conditions: GRGDS peptide 400 μM; OPN 250 nM
Procedure: Cellular adhesion was measured using the following methods. SMMC-7721-SC2 cells were seeded into the wells of a 96-well fluorescent-read plate in serum-free media (6×10^4 cells/well) with human OPN (0-250 nM) with or without prior digestion by MMP-9. Media and MMP-9 alone treated cells were included as controls. A GRGDS blocking peptide (400 μM) was added to separate media control, intact OPN, and MMP-9 cleaved OPN (250 nM) conditions. Non-adherent cells were removed with a PBS wash (100 μl) after one hour and adherent cells were quantified by CyQuant GR dye incorporation (Molecular Probes, OR) and detection at EX485, EM530.

SMMC-7721-SC2 cells [2] = test: Adhesion of cells transfected with OPN expression constructs; assay type: cell-based, human; conditions: 30-60 minutes
Procedure: To determine the affect of OPN fragments on adhesion, the following methods were used. SMMC-7721-SC2 cells (1×10^6) were trypsinized (E-PET, Biosource, CA) and transfected with the four OPN expression constructs shown in FIG. 3A and empty vector DNA (5 μg) (50-60% efficiency) using optimized conditions (Nucleofection, AMAXA, MD) and plated to 6-well plates. After a 24-hour recovery period, the cells were trypsinized and seeded by equal numbers (6×10^4) into fluorescent-read 96-well plates in serum-free media. Non-adherent cells were removed with a PBS wash after 2-60 minutes and fluorescence was quantified at EX485, EM530.

SMMC-7721-SC2 cells [3] = test: Migration assay of cells transfected with OPN constructs; assay type: cell-based, human; conditions: vector controls, 24, 36, 48 hours
Procedure: (§1) Migration and invasion assays were performed as follows. Transfected SMMC-7721-SC2 cells (transfected with 5 μg plasmid DNA) were allowed to recover in 5% serum containing media and were re-counted prior to dilution in serum-free media. Cells were seeded (5×10^4) into the upper chambers of Matrigel coated 8 um pore membranes (HTSTM Fluoroblok tumor invasion system, BD Biosciences, MA) or uncoated […] pore membranes (HTSTM Fluoroblok insert system, BD Biosciences, MA). Media containing serum (5%) was added to the lower chambers as a chemotactic agent. Blocking antibodies to either the integrin αVβ3 receptor (clone LM609, Chemicon, CA) or a common determinant of the CD44 receptors (clone A020, Calbiochem, CA) were added to the upper chambers (4 μg/ml) at the time of cell seeding. Migrated cells were labeled with calcein AM (Molecular Probes, OR) at 37° C. for 1 hour, and fluorescence was measured at 24, 36, and 48 hours (EX 490 nm, EM 530 nm).

SMMC-7721-SC2 cells [4] = test: Matrigel invasion assay (OPN constructs, blocking antibodies, OPN-5kD peptide); assay type: cell-based, human; conditions: 36 hours
Procedure: as §1
Cell invasion was measured as described in Example 4. Briefly, each of the OPN vectors shown in FIG. 3A (5 μg) were separately transfected into SMMC-7721 cells (1×10^6) using optimized conditions (Nucleofection, AMAXA). […] After 36 hours, the invaded cells were labeled with calcein at 37° C. for 1 hour and fluorescence was measured (EX485, EM530).
To determine the effect of blocking antibodies to the integrin aV133 and CD44 receptors on the affect of invasion of HCC cells expression OPN full-length or OPN-5 kD, integrin αVβ3 (Chemicon, CA) or CD44 (Calbiochem, CA) blocking antibodies were added (4 μg/ml) to cells transiently expressing OPN full-length and OPN-5kD. Invading cells were measured at 36 hours following calcein incorporation as described above.
To determine the effect of varying concentrations of the OPN-5kD peptide on invasion of HCC cells, SMMC-7721 cells were exposed to increasing concentrations of the OPN-5kD peptide (0.4 μM, 1 μM and 2 μM) and invading cells were measured after 36 hours following calcein incorporation as described above. […]

T1 sequence (P14780 94-707): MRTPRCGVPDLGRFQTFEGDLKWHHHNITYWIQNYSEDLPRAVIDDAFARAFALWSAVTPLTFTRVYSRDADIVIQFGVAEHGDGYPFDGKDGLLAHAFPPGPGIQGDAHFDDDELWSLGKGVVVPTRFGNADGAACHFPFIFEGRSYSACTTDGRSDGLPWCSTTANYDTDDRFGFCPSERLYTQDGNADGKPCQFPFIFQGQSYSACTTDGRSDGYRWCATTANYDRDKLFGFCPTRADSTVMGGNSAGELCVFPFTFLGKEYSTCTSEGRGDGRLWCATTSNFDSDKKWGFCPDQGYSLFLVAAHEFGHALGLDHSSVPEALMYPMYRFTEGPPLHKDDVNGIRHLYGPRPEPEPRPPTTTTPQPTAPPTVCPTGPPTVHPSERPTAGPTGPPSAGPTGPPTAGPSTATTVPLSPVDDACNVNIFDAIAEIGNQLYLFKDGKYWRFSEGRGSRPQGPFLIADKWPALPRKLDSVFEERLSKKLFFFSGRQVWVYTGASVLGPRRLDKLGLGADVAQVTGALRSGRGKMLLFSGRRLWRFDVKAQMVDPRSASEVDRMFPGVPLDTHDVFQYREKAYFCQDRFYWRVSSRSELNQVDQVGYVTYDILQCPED

O=C(O)CN(CCN(CC(=O)O)CC(=O)O)CC(=O)O [EDTA]
inhibition of MMP-9 cleavage of OPN (OPN-5kD fragment detection) (Human MMP-9): partially inhibited

ELNGAYKAIP (listed as Homo sapiens) [p7]
effect on OPN-5kD induced invasion, separate addition (SMMC-7721 SC2 cells): partial reduction in invasion
cellular invasion relative to media alone treated cells (SMMC-7721 SC2 cells): suppressive effect

GRGDS [GRGDS peptide]
blocking of intact and cleaved OPN-mediated adhesion (SMMC-7721-SC2 cells [1]): blocked both intact and cleaved OPN-mediated adhesion

HMESEELNGA (listed as Homo sapiens) [p6]
effect on OPN-5kD induced invasion, separate addition (SMMC-7721 SC2 cells): partial reduction in invasion
cellular invasion relative to media alone treated cells (SMMC-7721 SC2 cells): suppressive effect

KKFRRPDIQY (listed as Homo sapiens) [p2]
effect on OPN-5kD induced invasion, separate addition (SMMC-7721 SC2 cells): insignificant effect

OPN-5kD: MMP-9 cleavage fragment of OPN, residues 167-210; expressed from FLAG-tagged construct
adhesion after transient over-expression relative to controls, later time points (SMMC-7721-SC2 cells [2]): decreased adhesion
SMMC-7721-SC2 migration relative to controls (SMMC-7721-SC2 cells [3]): decreased migration
increase in cellular invasion (SMMC-7721-SC2 cells [4]; transfected cells, p=0.001): > 2 fold

OPN-24 kD: OPN fragment residues 211-314; expressed from FLAG-tagged construct
adhesion after transient over-expression relative to controls, later time points (SMMC-7721-SC2 cells [2]): decreased adhesion
SMMC-7721-SC2 migration relative to controls (SMMC-7721-SC2 cells [3]): decreased migration
cellular invasion compared to vector transfected cells (SMMC-7721-SC2 cells [4]): No significant difference

PDIQYPDATD (listed as Homo sapiens) [p3]
effect on OPN-5kD induced invasion, separate addition (SMMC-7721 SC2 cells): partial reduction in invasion
cellular invasion relative to media alone treated cells (SMMC-7721 SC2 cells): suppressive effect

full-length OPN: wild-type osteopontin protein (OPN-a) expressed from FLAG-tagged construct
adhesion after transient over-expression relative to controls, later time points (SMMC-7721-SC2 cells [2]): increased adhesion
SMMC-7721-SC2 migration relative to controls (SMMC-7721-SC2 cells [3]): induced SMMC-7721-SC2 migration
cellular invasion compared to vector transfected cells (SMMC-7721-SC2 cells [4]): slightly increased invasion
